Data set [1] deals with FMND/CYP2D6. Type of data set: binding, human. The note with it: difference spectra, FMND/CYP2D6 fusion, FMN domain oxidized.
Data set [2] has as its target CYP2D6 (Homo sapiens, UniProt P10635). In words: UV-visible spectral ligand binding assay, isolated CYP2D6. Particulars: difference spectra.
Data set [3] addresses T1, CYP17A1 (Homo sapiens, UniProt P05093).
T1 sequence (P05093 with tags, fused parts or gaps): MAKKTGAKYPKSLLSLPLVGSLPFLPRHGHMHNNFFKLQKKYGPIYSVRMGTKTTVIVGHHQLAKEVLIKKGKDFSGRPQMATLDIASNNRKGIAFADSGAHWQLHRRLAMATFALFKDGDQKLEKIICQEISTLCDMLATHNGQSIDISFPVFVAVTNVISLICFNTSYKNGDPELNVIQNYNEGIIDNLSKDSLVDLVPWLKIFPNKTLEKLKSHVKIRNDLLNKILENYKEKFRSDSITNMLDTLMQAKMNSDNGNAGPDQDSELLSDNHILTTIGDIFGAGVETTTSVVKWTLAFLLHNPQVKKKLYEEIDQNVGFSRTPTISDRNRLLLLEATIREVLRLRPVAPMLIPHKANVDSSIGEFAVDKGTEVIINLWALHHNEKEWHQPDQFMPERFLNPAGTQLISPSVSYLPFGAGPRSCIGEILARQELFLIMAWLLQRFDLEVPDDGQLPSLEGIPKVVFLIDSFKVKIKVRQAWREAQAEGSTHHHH
Nature of the data set: UV-visible spectral ligand binding assay, isolated CYP17A1. The note with it: difference spectra.

Data set [4] has as its target T2, FMND/CYP21A2 (Homo sapiens, UniProt P08686+P16435, R103K).
T2 sequence (P16435+P08686 with tags, fused parts or gaps P08686:R103K): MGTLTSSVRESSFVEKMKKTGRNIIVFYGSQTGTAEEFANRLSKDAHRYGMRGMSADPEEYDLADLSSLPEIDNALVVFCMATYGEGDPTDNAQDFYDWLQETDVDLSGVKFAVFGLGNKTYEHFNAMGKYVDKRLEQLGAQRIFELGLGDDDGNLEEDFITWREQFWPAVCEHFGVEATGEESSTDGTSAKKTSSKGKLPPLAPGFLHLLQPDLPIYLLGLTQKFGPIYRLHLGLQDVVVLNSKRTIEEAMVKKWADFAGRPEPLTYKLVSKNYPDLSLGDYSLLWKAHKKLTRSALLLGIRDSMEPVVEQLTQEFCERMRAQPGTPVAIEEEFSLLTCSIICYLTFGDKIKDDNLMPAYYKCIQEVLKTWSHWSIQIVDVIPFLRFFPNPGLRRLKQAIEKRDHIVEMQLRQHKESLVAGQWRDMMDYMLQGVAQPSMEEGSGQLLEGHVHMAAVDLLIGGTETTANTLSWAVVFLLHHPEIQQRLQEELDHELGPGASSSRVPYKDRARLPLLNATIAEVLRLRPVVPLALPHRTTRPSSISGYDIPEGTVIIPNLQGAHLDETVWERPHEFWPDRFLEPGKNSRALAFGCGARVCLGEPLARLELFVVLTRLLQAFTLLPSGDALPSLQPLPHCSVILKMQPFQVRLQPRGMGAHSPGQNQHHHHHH
Type of data set: biochemical. The note with it: progesterone 21-hydroxylation, cumene hydroperoxide, FMND/CYP21A2 vs CYP21A2.

For data set [5], the target named is T3, FMND/CYP17A1 (Homo sapiens, UniProt P05093+P16435).
T3 sequence (P16435+P05093 with tags, fused parts or gaps): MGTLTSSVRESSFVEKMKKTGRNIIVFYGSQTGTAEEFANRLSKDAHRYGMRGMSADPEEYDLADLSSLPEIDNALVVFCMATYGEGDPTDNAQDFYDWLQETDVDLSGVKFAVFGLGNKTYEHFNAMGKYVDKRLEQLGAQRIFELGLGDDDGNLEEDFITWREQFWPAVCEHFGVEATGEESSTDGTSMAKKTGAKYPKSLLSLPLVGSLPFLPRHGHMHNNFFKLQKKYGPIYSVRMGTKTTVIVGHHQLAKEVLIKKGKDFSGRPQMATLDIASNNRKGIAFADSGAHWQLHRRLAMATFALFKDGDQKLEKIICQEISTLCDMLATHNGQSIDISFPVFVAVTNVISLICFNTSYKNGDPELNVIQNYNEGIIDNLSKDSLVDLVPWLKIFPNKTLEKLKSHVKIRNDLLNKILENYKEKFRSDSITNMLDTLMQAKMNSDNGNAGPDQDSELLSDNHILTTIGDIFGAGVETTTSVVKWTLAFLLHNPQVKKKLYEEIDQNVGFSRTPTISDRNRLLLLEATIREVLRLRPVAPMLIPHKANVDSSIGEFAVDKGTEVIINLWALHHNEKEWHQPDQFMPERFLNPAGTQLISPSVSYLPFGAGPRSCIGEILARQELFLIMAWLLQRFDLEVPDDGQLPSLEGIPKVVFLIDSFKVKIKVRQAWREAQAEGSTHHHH
Type of data set: biochemical. The note with it: progesterone 17α-hydroxylation, cumene hydroperoxide.

Data set [6] has as its target T3, FMND/CYP17A1. Type of data set: binding.
The target in data set [7] is T4, CYP21A2 (Homo sapiens, UniProt P08686, R103K).
T4 sequence (P08686 with tags, fused parts or gaps R103K limits assumed): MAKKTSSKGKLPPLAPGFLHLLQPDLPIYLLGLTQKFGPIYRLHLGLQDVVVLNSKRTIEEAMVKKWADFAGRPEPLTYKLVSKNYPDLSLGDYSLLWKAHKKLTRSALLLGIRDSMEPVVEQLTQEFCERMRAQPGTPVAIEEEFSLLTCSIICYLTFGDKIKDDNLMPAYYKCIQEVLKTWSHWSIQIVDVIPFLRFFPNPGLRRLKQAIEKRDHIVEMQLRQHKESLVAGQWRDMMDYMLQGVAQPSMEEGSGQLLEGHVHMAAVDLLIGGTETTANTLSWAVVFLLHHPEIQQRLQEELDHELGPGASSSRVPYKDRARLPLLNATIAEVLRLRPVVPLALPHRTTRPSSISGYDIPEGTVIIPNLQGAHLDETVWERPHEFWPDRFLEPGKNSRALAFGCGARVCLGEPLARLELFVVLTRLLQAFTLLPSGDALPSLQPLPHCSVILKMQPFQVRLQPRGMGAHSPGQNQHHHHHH
Nature of the data set: UV-visible spectral ligand binding assay, isolated CYP21A2. Particulars: difference spectra.

In data set [8] the target is T2, FMND/CYP21A2. It counts as binding.
[9] abbreviates: FMND/CYP17A1 compared with CYP17A1.
Setting [10] is: FMND/CYP21A2 compared with CYP21A2.

Here are results for two compounds from article PMC10481364 (The Journal of Biological Chemistry, 2023).

Molecules are shown by their SMILES. Several values for one entry are separate records, joined by “and”; a condition that tells them apart may be missing. Identical values can stand only once.

Regarding `CC1(C)SCCN(S(=O)(=O)c2ccc(Oc3ccncc3)cc2)[C@H]1C(=O)NO` [prinomastat], the “spectral shift (binding mode)” value in data set [1] and in data set [2] was “type II” throughout.

As to `CC(=O)[C@H]1CC[C@H]2[C@@H]3CCC4=CC(=O)CC[C@]4(C)[C@H]3CC[C@]12C` [progesterone], the “spectral shift (binding mode)” value in data set [3] is reported as “type I”. In data set [4], the “effect on catalytic efficiency, in words” value is “unchanged” and the “increase in kcat by FMN domain fusion” value stood at 17%. For the same compound, in data set [5] (CYP17A1 and FMND/CYP17A1), the “steady-state kinetics, saturation” value was “saturation could not be reached”. Also, the “trend of the FMN domain effect on kcat and Km, in words” value in data set [5] (FMND/CYP17A1 vs CYP17A1, poorly defined) is “increase kcat as well as Km”. In data set [6] (setting [9]), the “increase in affinity by FMN domain fusion” value is on record as 17% and the “increase in overall binding efficiency (ΔAmax/Kd) by FMN domain fusion” value is listed as 38%. Besides, the “spectral shift (binding mode)” value in data set [6] (difference spectra, FMND/CYP17A1 fusion, FMN domain oxidized) is “type I”. In addition, the “spectral shift (binding mode)” value in data set [7] is “type I”. In data set [8] (setting [10]), the “decrease in total / maximal absorbance change (ΔAmax) by FMN domain fusion” value is 31% and 30%; the “effect of FMN domain fusion on the affinity, in words” value is listed as “without substantially altering”. Moreover, the “spectral shift (binding mode)” value in data set [8] (difference spectra, FMND/CYP21A2 fusion, FMN domain oxidized) is “type I”.
